Our source for the pest or weed control values is patent US9204653B2, “5-fluoro pyrimidine derivatives” (DOW AGROSCIENCES LLC, priority 2008, dated 2015).

The assay deals with Mycosphaerella graminicola; Anamorph: Septoria tritici; Bayer Code SEPTTR. Description: Leaf blotch of wheat, foliar fungicide treatment, one day protectant (1DP) or three day curative (3DC). It is filed as in vivo, Septoria tritici on wheat plants (variety Yuma). Particulars: Zymoseptoria tritici; for pest or weed control at 50 ppm / pest or weed control at 200 ppm: % disease control rating.

Where [1] appears, read: 24 h, one day protectant, 25 ppm, rating of percent disease control, read-out: SETTTR 1DP 25 ppm.
Where [2] appears, read: 24 h, one day protectant, rating of percent disease control, read-out: SEPTTR 1DP 100 ppm.
The mark [3] stands for this setting: 72 h, three day curative, 25 ppm, rating of percent disease control, read-out: SEPTTR 3DC 25 ppm.
Where [4] appears, read: 72 h, three day curative, rating of percent disease control, read-out: SEPTTR 3DC 100 ppm.
Where [5] appears, read: 24 h, one day protectant (1DP), 25 ppm, rating of percent disease control, read-out: SETTTR 1DP 25 ppm.
[6] abbreviates: 24 h, one day protectant (1DP), rating of percent disease control, read-out: SEPTTR 1DP 100 ppm.
Where [7] appears, read: 72 h, three day curative (3DC), 25 ppm, rating of percent disease control, read-out: SEPTTR 3DC 25 ppm.
[8] abbreviates: 72 h, three day curative (3DC), rating of percent disease control, read-out: SEPTTR 3DC 100 ppm.
Setting [9] is: 24 h, one day protectant (1DP), 25 ppm (first 1DP column), percent control rating, read-out: SETTTR 1DP 25 ppm.
The mark [10] stands for this setting: 24 h, one day protectant (1DP), 25 ppm as printed (second 1DP column), percent control rating, read-out: SETTTR 1DP 25 ppm.
Setting [11] is: 72 h, three day curative (3DC), 25 ppm, percent control rating, read-out: SEPTTR 3DC 25 ppm.
Setting [12] is: 72 h, three day curative (3DC), percent control rating, read-out: SEPTTR 3DC 100 ppm.

Where two headings read alike, the source gives them in different places.

Consider `COc1cccc(COc2ncc(F)c(NOC3CCCCO3)n2)c1` (stereo not shown) [Compound 652], for which the pest or weed control at 25 ppm under setting [1] was 0 to 25% and the pest or weed control at 25 ppm under setting [3] lay in the range of 0 to 25%. Further, the pest or weed control at 100 ppm was 51 to 75% under setting [2] and 76 to 100% under setting [4].
`COCCCOc1ncc(F)c(/N=C/N(C)C)n1` [Compound 457]: the pest or weed control at 25 ppm is, setting by setting: under setting [5], 51 to 75%; under setting [7], 51 to 75%. For the same molecule, the pest or weed control at 100 ppm is, setting by setting: under setting [6], 76 to 100%; under setting [8], 76 to 100%.
On to `Oc1ncc(F)c(NCOCc2ccccc2)n1` [Compound 1082], for which the pest or weed control at 25 ppm runs as follows: under setting [9], 0 to 25%; under setting [10], 0 to 25%; under setting [11], 0 to 25%. The pest or weed control at 100 ppm under setting [12] was in the range of 0 to 25%.
In the case of `COc1ncc(F)c(NNC(=O)c2ccc(Cl)cc2)n1` [Compound 1121], the pest or weed control at 25 ppm was in the range of 0 to 25% under setting [9], 0 to 25% under setting [10] and 0 to 25% under setting [11]. Moreover, the pest or weed control at 100 ppm under setting [12] was 0 to 25%.
In the case of `Nc1nc(OCc2ccoc2)ncc1F` [Compound 392], the pest or weed control at 25 ppm by setting is: under setting [5], 76 to 100%; under setting [7], 76 to 100%. The pest or weed control at 100 ppm is 76 to 100% under setting [6] and 76 to 100% under setting [8].
In the case of `CN(C)/C=N/c1nc(OC(=O)Oc2ccc(Cl)cc2)ncc1F` [Compound 361], the pest or weed control at 25 ppm fell in the range of 51 to 75% under setting [5] and 76 to 100% under setting [7]. The pest or weed control at 100 ppm is, setting by setting: under setting [6], 76 to 100%; under setting [8], 76 to 100%.
For the molecule `Cc1ccc(COc2ncc(F)c(NC(=S)NCc3ccccc3F)n2)cc1` [Compound 670], the pest or weed control at 25 ppm fell in the range of 51 to 75% under setting [1] and 51 to 75% under setting [3]. Also, the pest or weed control at 100 ppm is 76 to 100% under setting [2] and 76 to 100% under setting [4].
With `CC(Oc1ncc(F)c(N)n1)c1cc(Cl)c(Cl)cc1Cl` (stereo not shown) [Compound 502], the pest or weed control at 25 ppm lay in the range of 0 to 25% under setting [5] and 0 to 25% under setting [7]. Besides, the pest or weed control at 100 ppm under setting [6] was in the range of 0 to 25% and the pest or weed control at 100 ppm under setting [8] is 0 to 25%.
Under “24 h, one day protectant”, `CC(=O)Nc1nc(OCc2cccc(Oc3ccccc3)c2)ncc1F` [Compound 815] came in with a pest or weed control at 50 ppm of 76 to 100% and a pest or weed control at 200 ppm of 76 to 100%.
On to `CC(C)C(=O)NNc1nc(OCc2ccc(F)cc2)ncc1F` [Compound 793], for which the pest or weed control at 25 ppm runs as follows: under setting [5], 0 to 25%; under setting [7], 0 to 25%. Moreover, the pest or weed control at 100 ppm lay within 0 to 25% under setting [6] and 0 to 25% under setting [8].
For the molecule `Cc1cc(/C=N/Nc2nc(OCc3ccccc3)ncc2F)n(C)n1` [Compound 152], the pest or weed control at 25 ppm (24 h, one day protectant (1DP), 25 ppm, percent disease control rating, read-out: SETTTR 1DP 25 ppm) is 26 to 50% and the pest or weed control at 25 ppm (72 h, three day curative (3DC), 25 ppm, percent disease control rating, read-out: SEPTTR 3DC 25 ppm) was in the range of 26 to 50%. The pest or weed control at 100 ppm runs as follows: (24 h, one day protectant (1DP), percent disease control rating, read-out: SEPTTR 1DP 100 ppm) 76 to 100%; (72 h, three day curative (3DC), percent disease control rating, read-out: SEPTTR 3DC 100 ppm) 76 to 100%.
For `Cc1ccc(COc2ncc(F)c(N(N)C3CCCCC3)n2)cc1` [Compound 755], the pest or weed control at 25 ppm was in the range of 26 to 50% under setting [5] and 0 to 25% under setting [7]. Moreover, the pest or weed control at 100 ppm is 26 to 50% under setting [6] and 0 to 25% under setting [8].
Take `CN(N)c1nc(OCc2ccccc2)ncc1F` [Compound 395]: the pest or weed control at 25 ppm is, setting by setting: under setting [5], 0 to 25%; under setting [7], 26 to 50%. Also, the pest or weed control at 100 ppm by setting is: under setting [6], 0 to 25%; under setting [8], 51 to 75%.
As for `CN(C)/C=N/c1nc(OCc2cccc(F)c2)ncc1F` [Compound 494], the pest or weed control at 25 ppm reads like this: under setting [5], 76 to 100%; under setting [7], 76 to 100%. Also, the pest or weed control at 100 ppm under setting [6] lay within 76 to 100% and the pest or weed control at 100 ppm under setting [8] fell in the range of 76 to 100%.
As to `Fc1cnc(OCc2cccs2)nc1NCOCc1ccccc1` [Compound 506], the pest or weed control at 25 ppm lay within 26 to 50% under setting [5] and 0 to 25% under setting [7]. Also, the pest or weed control at 100 ppm was in the range of 76 to 100% under setting [6] and 0 to 25% under setting [8].
Take `COc1ccc(OC(=O)Oc2ncc(F)c(/N=C/N(C)C)n2)cc1` [Compound 523]: the pest or weed control at 25 ppm lay within 76 to 100% under setting [5] and 76 to 100% under setting [7]. In addition, the pest or weed control at 100 ppm was in the range of 76 to 100% under setting [6] and 76 to 100% under setting [8].
Regarding `Cn1ccc(COc2ncc(F)c(NCO)n2)n1` [Compound 245], the pest or weed control at 25 ppm lay within 51 to 75% under setting [5] and 51 to 75% under setting [7]. For the same molecule, the pest or weed control at 100 ppm by setting is: under setting [6], 76 to 100%; under setting [8], 76 to 100%.
`O=C(Nc1ccsc1)Nc1nc(OCc2ccc(F)cc2)ncc1F` [Compound 587]: the pest or weed control at 25 ppm runs as follows: under setting [1], 0 to 25%; under setting [3], 26 to 50%. The pest or weed control at 100 ppm under setting [2] fell in the range of 0 to 25% and the pest or weed control at 100 ppm under setting [4] was 76 to 100%.
As to `Cc1ccc(COc2ncc(F)c(NC(=O)Cc3ccccc3)n2)cc1` [Compound 497], the pest or weed control at 25 ppm runs as follows: under setting [5], 51 to 75%; under setting [7], 0 to 25%. Also, the pest or weed control at 100 ppm under setting [6] lay in the range of 76 to 100% and the pest or weed control at 100 ppm under setting [8] lay within 26 to 50%.
Consider `COc1ccc(COc2ncc(F)c(/N=C/N(C)C)n2)cc1F` [Compound 663], for which the pest or weed control at 25 ppm lay in the range of 76 to 100% under setting [1] and 76 to 100% under setting [3]. Further, the pest or weed control at 100 ppm runs as follows: under setting [2], 76 to 100%; under setting [4], 76 to 100%.
Molecule `Fc1cnc(OCc2ccccc2Cl)nc1NCc1cccs1` [Compound 810] had a pest or weed control at 200 ppm (24 h, one day protectant) of 76 to 100%.
Consider `COc1ncc(F)c(N/N=C(\C)c2ccc(F)cc2)n1` [Compound 1026], for which the pest or weed control at 25 ppm reads like this: under setting [9], 26 to 50%; under setting [10], 26 to 50%; under setting [11], 0 to 25%. In addition, under setting [12], the pest or weed control at 100 ppm lay within 26 to 50%.
Regarding `O=[N+]([O-])c1ccccc1SNc1nc(OCc2ccc(F)c(C(F)(F)F)c2)ncc1F` [Compound 527], the pest or weed control at 25 ppm is, setting by setting: under setting [5], 51 to 75%; under setting [7], 0 to 25%. In addition, the pest or weed control at 100 ppm is, setting by setting: under setting [6], 76 to 100%; under setting [8], 0 to 25%.
For `Cn1ccc(COc2ncc(F)c(NCOCc3ccccc3)n2)n1` [Compound 412], the pest or weed control at 25 ppm under setting [5] lay within 0 to 25% and the pest or weed control at 25 ppm under setting [7] lay within 0 to 25%. The pest or weed control at 100 ppm under setting [6] fell in the range of 76 to 100% and the pest or weed control at 100 ppm under setting [8] fell in the range of 51 to 75%.
As to `Cc1ccc(COc2ncc(F)c(NS(=O)(=O)c3c(Br)cnn3C)n2)cc1` [Compound 1027], the pest or weed control at 25 ppm fell in the range of 0 to 25% under setting [9], 0 to 25% under setting [10] and 0 to 25% under setting [11]. The pest or weed control at 100 ppm under setting [12] is 0 to 25%.
Turning to `Nc1nc(OCC2CC2)ncc1F` [Compound 722], the pest or weed control at 25 ppm reads like this: under setting [1], 0 to 25%; under setting [3], 0 to 25%. Further, the pest or weed control at 100 ppm lay within 0 to 25% under setting [2] and 26 to 50% under setting [4].
Take `C/C(=N\Nc1nc(O)ncc1F)c1ccc(Br)cc1` [Compound 1108]: the pest or weed control at 25 ppm was 0 to 25% under setting [9], 0 to 25% under setting [10] and 0 to 25% under setting [11]. Also, the pest or weed control at 100 ppm under setting [12] fell in the range of 0 to 25%.
Regarding `CN(C)/C=N/c1nc(OC(=O)C2CC2)ncc1F` [Compound 417], the pest or weed control at 25 ppm is, setting by setting: under setting [5], 76 to 100%; under setting [7], 76 to 100%. The pest or weed control at 100 ppm is 76 to 100% under setting [6] and 76 to 100% under setting [8].
Regarding `CC(Oc1ncc(F)c(N)n1)c1cccc(I)c1` (stereo not shown) [Compound 798], the pest or weed control at 25 ppm runs as follows: under setting [5], 76 to 100%; under setting [7], 76 to 100%. Besides, the pest or weed control at 100 ppm is, setting by setting: under setting [6], 76 to 100%; under setting [8], 76 to 100%.
Consider `Fc1cnc(OCC(F)(F)F)nc1NCc1cccs1` [Compound 830], for which, where the note is “24 h, one day protectant”, the pest or weed control at 50 ppm fell in the range of 0 to 25% and the pest or weed control at 200 ppm was 0 to 25%.
With `CN(Cc1ccc(Cl)cc1)c1nc(O)ncc1F` [Compound 1068], the pest or weed control at 25 ppm was 0 to 25% under setting [9], 0 to 25% under setting [10] and 0 to 25% under setting [11]. Under setting [12], the pest or weed control at 100 ppm was 0 to 25%.
In the case of `COc1ccc(COc2ncc(F)c(NCc3cccs3)n2)cc1` [Compound 906], under “24 h, one day protectant”, the pest or weed control at 200 ppm is 76 to 100%.
As for `CC(C)Oc1ccc(COc2ncc(F)c(N)n2)cc1` [Compound 783], the pest or weed control at 25 ppm runs as follows: under setting [5], 76 to 100%; under setting [7], 76 to 100%. Moreover, the pest or weed control at 100 ppm by setting is: under setting [6], 76 to 100%; under setting [8], 76 to 100%.
With `Fc1ccccc1CNc1nc(OCc2ccc(Cl)c(Cl)c2)ncc1F` [Compound 883], under “24 h, one day protectant”, the pest or weed control at 50 ppm fell in the range of 76 to 100% and the pest or weed control at 200 ppm was in the range of 76 to 100%.
